According to patent publication US6294568A, “5-arylpyrrole derivatives” (priority 1997, dated 2001):

Assays:
Subcute Toxicity Test = format: in vivo, SD rats; settings: 100 mg/kg once daily for 14 days, male and female rats
Description: The Subcute toxicity test was conducted as described in the following. SD rats (six each of male and female rats per group) were employed in the present test. The title compound (Preparation Example 1) was suspended in 0.5% methyl cellulose solution to be administered to the rats by a disposable feeding tube (manufactured by Fuchigami Kikai) once daily for 14 days. The dosage of the test samples was 100 mg/kg.

Human COX-1 = target: T1, Human COX-1 (Homo sapiens, UniProt P23219); experiment: Human COX-1 Inhibitory Activity Test (TXB2 in blood); format: cell-based; settings: IC50 from Hill Plot
T1 construct: endogenous in cells; host or cells: whole blood of a healthy human donor (own knowledge: TXB2 of clotting blood comes from platelet COX-1)
Description: COX-1 and COX-2 activities were measured according to the method of Patrignani et al. (J. Pharm. Exp. Ther. Vol. 271, 1705 (1994)).
(1) COX-1 activity was measured in the following procedure. […] The serum obtained by 10 minutes of centrifugation at 2000 rpm at 4° C. was stored at -40° C. until the measurement of the amount of thromboxane B2 (TXB2). The test samples, which had been dissolved in ethanol and diluted to the specified concentrations, were previously dispensed into the glass test tubes, and the solvent was evaporated to dryness by Centrifugal Vaporizer (CVE-200D, manufactured by Tokyo Rika Mfg. Co., Ltd.) so that the test samples were added to the plasma.
(3) The measurement for the TXB2 content was conducted in the following procedure. In a part of a 96 well plate coated with anti-rabbit IgG antibody, 2 wells were allotted respectively to blank well, Non-specific Binding (NSB) well, Maximum Binding (B0) well, standard wells at 7 concentrations of TXB2 (1000 pg/ml) in doubling dilution ranging from 1000-15.6 pg/ml. The rest of the wells were used for the measurement of the samples. EIA buffer was added to the NSB wells (100 μl ) and B0 wells (50 μl), respectively. 50 μl of each of the standard dilution was added in an order from thinner to thicker concentrations. Each of the samples was added to the rest of the wells in an amount of 50 μl. Then, 50 μl of TXB2 tracer was added to each of the wells except for the blank wells. Further, 50 μl of TXB2 antibody was added to each of the wells except for the NSB wells and blank wells, then the well plate was covered with a plastic film and the reaction continued for 18 hours at room temperature. When the reaction was terminated, the wells were washed 5 times with a wash buffer. 200 μl of Elman's reagent was added to each of the wells and then the well plate was covered with a plastic film and developed for 60 minutes in a dark place. The absorbance at 405 nm was measured by an Immuno Reader (NJ-2000, manufactured by Nippon Intermed Co., Ltd.). From the measurement result, %B/B0 was calculated and, applying it to the approximation formula of Hill Plot, the concentration of the samples was determined to be 2,000 times concentration. […]

adjuvant arthritis = experiment: Rat Adjuvant Arthritis Test; format: in vivo, SD rats; settings: 3 mg/kg, oral
Description: SD rats were injected subcutaneously with […] liquid paraffin/rat of H-37RA strain in the plantar area of the right hind paw. Only liquid paraffin (0.05 ml) was administered to control groups in the same manner. 21 days after the administration, rats showing the evidence of arthritis were selected and divided into groups having equal mean left and right hind paw volumes, and also having equal arthritis scores. From the date of the grouping, the test samples were administered orally to the rats once daily for 7 days (only the solvent was administered to the negative and positive control groups). The degree of the arthritis was quantitatively evaluated by measuring the volumes of the left and right hind paws by using a volume meter (manufactured by Muromachi Kikai) and by scoring the degree of arthritis by macroscopic observation as illustrated in Table 2. According to the scoring criteria in Table 2, 15 is a perfect score.
The dosage of each of the test samples was 3 mg/kg.

CaCo-2 cells = experiment: Apoptosis Induction Test in CaCo-2 Cells; format: cell-based; settings: 24 hours, propidium iodide staining, fluorescence microscope
Description: CaCo-2 cells were adjusted in 10% FBS/DMEM/NEAA to 1.0×10^5 cells/ml concentration and then pipetted into a 6 well plate in an amount of 3 ml/well. The cells were cultured under the conditions of at 37° C. in 5% CO2 atmosphere for 24 hours to allow the cell adhesion. Only the medium solution (0.1% ethanol) was exchanged in the control group, and the compound of the invention (Preparation Example 1) group was transferred to culture mediums containing the compound adjusted to each of the specified concentrations, then the cells were cultured under the condition of at 37° C. in 5% CO2 atmosphere for 24 hours. Then the culture medium and the adhesive cells separated of the adhesion by trypsin were collected and centrifuged at 1000 rpm for 5 minutes to remove the supernatant. The cells were washed with PBS(-) and then 20 μl of 90% ethanol/0.5% triton×100/10mM EDTA/10mM Tris-HCl (pH7.4) and 5 μl of propidium iodide (1 μg/ml) were added thereto to stain the nucleuses. A drop of the stained cell solution was placed on a preparation glass to be examined by a fluorescence microscope at B range.

T1 sequence (P23219 24-599): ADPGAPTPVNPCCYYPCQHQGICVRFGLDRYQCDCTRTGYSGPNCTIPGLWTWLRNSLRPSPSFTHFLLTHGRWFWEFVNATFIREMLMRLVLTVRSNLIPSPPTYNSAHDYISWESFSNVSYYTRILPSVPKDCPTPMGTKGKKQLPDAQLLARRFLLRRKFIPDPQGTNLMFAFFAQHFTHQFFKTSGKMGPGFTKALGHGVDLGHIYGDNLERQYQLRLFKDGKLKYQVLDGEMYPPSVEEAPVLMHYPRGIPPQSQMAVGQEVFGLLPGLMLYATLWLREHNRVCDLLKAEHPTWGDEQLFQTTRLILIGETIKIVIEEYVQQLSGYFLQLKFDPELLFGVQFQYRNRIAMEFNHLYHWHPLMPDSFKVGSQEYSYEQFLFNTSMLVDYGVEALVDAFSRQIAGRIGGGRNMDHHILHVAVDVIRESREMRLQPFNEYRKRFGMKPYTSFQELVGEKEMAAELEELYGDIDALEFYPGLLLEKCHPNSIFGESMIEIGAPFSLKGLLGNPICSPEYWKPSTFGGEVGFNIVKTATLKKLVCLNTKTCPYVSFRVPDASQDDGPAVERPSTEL

## Cc1cc(-c2ccc(F)cc2)c(-c2ccc(S(C)(=O)=O)cc2)[nH]1 [Preparation Example 1, 4-(4-fluorophenyl)-2-methyl-5-(4-methylsulfonylphenyl)-1H-pyrrole]
Subcute Toxicity Test
  general symptoms and weight increase: neither of a change in the general symptoms nor an adverse affect on the weight increase was noted
Human COX-1
  IC50: 649 µM
Adjuvant arthritis; day 21 (starting date of administration), once daily
  Right Hind Paw Volume day 21: 3.86 mL
Adjuvant arthritis; day 27, once daily for 7 days
  Right Hind Paw Volume day 27: 2.96 mL
CaCo-2 cells
  cell apoptosis: cell apoptosis caused by the compound of the invention was observed
